Results published in paper PMC7927021 (Toxins, 2021).
Where “and” joins values, the source holds several entries; their conditions need not be identical. Equal entries are not always repeated.

Key:
Caco-2 cells [1] = format: cell-based, human
Caco-2 cells [2] = format: cell-based, human; remark: listed apart in the source
[3] = design: method as in PMID 21699062; conditions: established by JECFA in 2011; cited from earlier work

SMILES | Concentration range in which viability was significantly/sharply reduced (Caco-2 cells [1]) | Concentration range of robust decrease in cell viability (Caco-2 cells [1]) | Number of KEGG pathways in which DEGs were enriched (Caco-2 cells [2]) | Number of differentially expressed genes (DEGs) (Caco-2 cells [2]) | PMTDI (Provisional Maximum Tolerable Daily Intake) [3] | IC50 (Caco-2 cells [1])
CC(=O)OC[C@]12[C@H](O)C(=O)C(C)=C[C@H]1O[C@@H]1[C@H](O)C[C@@]2(C)[C@]12CO2 [15-ADON, trichothec-9-en-8-one, 15-(acetyloxy)-12,13-epoxy-3,7-dihydroxy-, (3α,7α)] | 0.2 to 10 µM | 0.5 to 10 µM | 28 | 2425 |  | 
CC1=C[C@H]2O[C@@H]3[C@H](O)C[C@](C)([C@@]2(CO)[C@H](O)C1=O)[C@]31CO1 [DON, Deoxynivalenol] | 0.2 to 10 µM | 0.2 to 10 µM | 27 | 2656 | 1 μg/kg bw per day | 
CC(=O)O[C@@H]1C[C@]2(C)[C@@]3(CO)[C@H](O)C(=O)C(C)=C[C@H]3O[C@H]1[C@@]21CO1 [3-ADON, trichothec-9-en-8-one, 3-(acetyloxy)-12,13-epoxy-7,15-dihydroxy-, (3α,7α)] | 1 to 10 µM | 2 to 10 µM | 42 | 3132 |  | 13.2 µM and 10.8 µM and 7.84 µM
